Laboratory results taken from patent US8388931B2, “99m Tc-labeled triphenylphosphonium derivative contrasting agents and molecular probes for early detection and imaging of breast tumors” (priority 2008, dated 2013).
Where two headings read alike, the source gives them in different places.

Experiments:
[1] = Radio-stability in physiological buffer by radioHPLC; format: physicochemical
Experimental: Mito10-MAG3 was radiolabeled with ^99mTc, using a protocol previously reported with minor modifications. Specifically, an aliquot of Mito10-MAG3 (30 μg) was re-suspended in 450 μl of freshly prepared labeling solution containing 7.5 mg tartaric acid, 9.5 mg ammonium acetate, 10 μg stannous chloride, pH 8.3. After the addition of ^99mTc pertechnetate (3 mCi), the labeling mixture was incubated at 65° C. for one hour. For quality control purposes, the radiolabeled product was routinely analyzed by radioHPLC (4.6×250 mm C18 reversed phase column) at room temperature, with the following method.
Buffer A contained 10 mM phosphate buffer (pH 6.8) and buffer B contained 100% acetonitrile. A baseline of 90% A and 10% B was run for 10 min, followed by a linear gradient with the mobile phase reaching 10% A and 90% B at 40 min. To determine the radio-stability, the radiopharmaceutical was maintained in physiological buffer for up to 48 hours, and the radiochemical purity was examined by radioHPLC.

[2] = for Radioactivity Uptake, Bone: Bone (non-organ); for Radioactivity Uptake, Fat: Fat (non-organ); for Radioactivity Uptake, Muscle: Muscle (non-organ); for Radioactivity Uptake, Urine: Urine (non-organ)
Experimental: Rats (n=3) were sacrificed at 1, 3, 5, 10, 30 and 60 min after injection and the distribution of radioactivity in different tissues was determined by gamma well counting with an energy window of 140±15 keV. The biodistribution data is expressed in terms of percentage injected dosage per gram (% ID/g) with mean±standard deviation. Urine samples were collected from the bladder at 30 min after injection, and were analyzed by radioHPLC to determine the presence of metabolic derivatives of the radiotracer. […] Specifically, anterior planar whole-body dynamic images were acquired on an XRT gamma camera (General Electric) using a high-resolution medium energy parallel-hole collimator at one frame per minute for 60 min, with 512×512 matrix, and an energy window of 140±15 keV.

## CC(=O)[S+]1CC(=O)[N]2CC(=O)[N]3CC(=O)[N](CC(=O)NCCCCCCCCCC[P+](c4ccccc4)(c4ccccc4)c4ccccc4)[99Tc]321=[O].[Br-] (stereo not shown) [^99mTc-Mito10-MAG3]
[1]; physiological solution, radioHPLC
  time radioactivity bound to Mito10-MAG3 remained persistent after labeling: at least 48 hours
[1]; radioHPLC at 0, 24 and 48 hr after radiolabeling
  change in radiochemical purity after radiolabeling: no significant change in radiochemical purity
[2]; 1 min after injection, rats
  Radioactivity Uptake, Bone: 0.12 ± 0.05 % ID/g
  Radioactivity Uptake, Brain: 0.04 ± 0.03 % ID/g
  Radioactivity Uptake, Colon: 0.09 ± 0.04 % ID/g
  Radioactivity Uptake, Fat: 0.04 ± 0.02 % ID/g
  Radioactivity Uptake, Heart: 0.20 ± 0.08 % ID/g
  Radioactivity Uptake, Kidneys: 2.30 ± 0.55 % ID/g
  Radioactivity Uptake, Liver: 3.23±1.10 % ID/g
  Radioactivity Uptake, Lung: 0.82 ± 1.05 % ID/g
  Radioactivity Uptake, Muscle: 0.05 ± 0.02 % ID/g
  Radioactivity Uptake, Pancreas: 0.32 ± 0.22 % ID/g
  Radioactivity Uptake, Skin: 0.07 ± 0.03 % ID/g
  Radioactivity Uptake, Small Intestine: 0.18 ± 0.04 % ID/g
  Radioactivity Uptake, Spleen: 0.27 ± 0.12 % ID/g
  Radioactivity Uptake, Stomach: 0.26 ± 0.04 % ID/g
  Radioactivity Uptake, Thymus: 006 ± 0.02 % ID/g
  Radioactivity Uptake, Thyroid: 0.30 ± 0.13 % ID/g
  Radioactivity Uptake, Urine: 0.05 ± 0.05 % ID/g
[2]; 3 min after injection, rats
  Radioactivity Uptake, Bone: 0.05 ± 0.01 % ID/g
  Radioactivity Uptake, Brain: 0.02 ± 0.01 % ID/g
  Radioactivity Uptake, Colon: 0.08 ± 0.03 % ID/g
  Radioactivity Uptake, Fat: 0.06 ± 0.01 % ID/g
  Radioactivity Uptake, Heart: 0.27±0.04 % ID/g
  Radioactivity Uptake, Kidneys: 3.69 ± 0.92 % ID/g
  Radioactivity Uptake, Liver: 2.41 ± 1.12 % ID/g
  Radioactivity Uptake, Lung: 0.31 ± 0.14 % ID/g
  Radioactivity Uptake, Muscle: 0.03 ± 0.01 % ID/g
  Radioactivity Uptake, Pancreas: 0.27 ± 0.12 % ID/g
  Radioactivity Uptake, Skin: 0.10 ± 0.04 % ID/g
  Radioactivity Uptake, Small Intestine: 0.67 ± 0.30 % ID/g
  Radioactivity Uptake, Spleen: 0.25 ± 0.17 % ID/g
  Radioactivity Uptake, Stomach: 0.32 ± 0.12 % ID/g
  Radioactivity Uptake, Thymus: 0.12 ± 0.04 % ID/g
  Radioactivity Uptake, Thyroid: 0.33 ± 0.07 % ID/g
  Radioactivity Uptake, Urine: 0.76 ± 0.56 % ID/g
[2]; 5 min after injection, rats
  Radioactivity Uptake, Bone: 0.02 ± 0.24 % ID/g
  Radioactivity Uptake, Brain: 0.04 ± 0.03 % ID/g
  Radioactivity Uptake, Colon: 0.02 ± 0.01 % ID/g
  Radioactivity Uptake, Fat: 0.07 ± 0.05 % ID/g
  Radioactivity Uptake, Heart: 0.18 ± 0.07 % ID/g
  Radioactivity Uptake, Kidneys: 3.06 ± 1.41 % ID/g
  Radioactivity Uptake, Liver: 1.50 ± 0.84 % ID/g
  Radioactivity Uptake, Lung: 0.48 ± 0.43 % ID/g
  Radioactivity Uptake, Muscle: 0.06 ± 0.01 % ID/g
  Radioactivity Uptake, Pancreas: 0.20 ± 0.17 % ID/g
  Radioactivity Uptake, Skin: 0.12 ± 0.08 % ID/g
  Radioactivity Uptake, Small Intestine: 0.48 ± 0.14 % ID/g
  Radioactivity Uptake, Spleen: 0.20 ± 0.08 % ID/g
  Radioactivity Uptake, Stomach: 0.25 ± 0.26 % ID/g
  Radioactivity Uptake, Thymus: 0.07 ± 0.01 % ID/g
  Radioactivity Uptake, Thyroid: 0.27 ± 0.11 % ID/g
  Radioactivity Uptake, Urine: 0.68 ± 0.03 % ID/g
[2]; 10 min after injection, rats
  Radioactivity Uptake, Bone: 0.04 ± 0.03 % ID/g
  Radioactivity Uptake, Brain: 0.01 ± 0.00 % ID/g
  Radioactivity Uptake, Colon: 0.03 ± 0.01 % ID/g
  Radioactivity Uptake, Fat: 0.07 ± 0.03 % ID/g
  Radioactivity Uptake, Heart: 0.06±0.01 % ID/g
  Radioactivity Uptake, Kidneys: 1.79 ± 0.39 % ID/g
  Radioactivity Uptake, Liver: 0.89 ± 0.30 % ID/g
  Radioactivity Uptake, Lung: 0.23 ± 0.24 % ID/g
  Radioactivity Uptake, Muscle: 0.06 ± 0.01 % ID/g
  Radioactivity Uptake, Pancreas: 0.12 ± 0.04 % ID/g
  Radioactivity Uptake, Skin: 0.05 ± 0.04 % ID/g
  Radioactivity Uptake, Small Intestine: 0.50 ± 0.19 % ID/g
  Radioactivity Uptake, Spleen: 0.09 ± 0.04 % ID/g
  Radioactivity Uptake, Stomach: 0.30 ± 0.24 % ID/g
  Radioactivity Uptake, Thymus: 0.04 ± 0.03 % ID/g
  Radioactivity Uptake, Thyroid: 0.11 ± 0.04 % ID/g
  Radioactivity Uptake, Urine: 2.35 ± 2.63 % ID/g
[2]; 30 min after injection, rats
  Radioactivity Uptake, Bone: 0.01 ± 0.01 % ID/g
  Radioactivity Uptake, Brain: 0.01 ± 0.01 % ID/g
  Radioactivity Uptake, Colon: 0.04 ± 0.03 % ID/g
  Radioactivity Uptake, Fat: 0.01 ± 0.00 % ID/g
  Radioactivity Uptake, Heart: 0.02±0.02 % ID/g
  Radioactivity Uptake, Kidneys: 1.40 ± 0.96 % ID/g
  Radioactivity Uptake, Liver: 0.32±0.02 % ID/g
  Radioactivity Uptake, Lung: 0.05 ± 0.01 % ID/g
  Radioactivity Uptake, Muscle: 0.02 ± 0.01 % ID/g
  Radioactivity Uptake, Pancreas: 0.01 ± 0.00 % ID/g
  Radioactivity Uptake, Skin: 0.04 ± 0.03 % ID/g
  Radioactivity Uptake, Small Intestine: 0.52 ± 0.20 % ID/g
  Radioactivity Uptake, Spleen: 0.02 ± 0.02 % ID/g
  Radioactivity Uptake, Stomach: 0.57 ± 0.41 % ID/g
  Radioactivity Uptake, Thymus: 0.01 ± 0.00 % ID/g
  Radioactivity Uptake, Thyroid: 0.02 ± 0.02 % ID/g
  Radioactivity Uptake, Urine: 8.83 ± 8.50 % ID/g
[2]; 60 min after injection, rats
  Radioactivity Uptake, Bone: 0.00 ± 0.00 % ID/g
  Radioactivity Uptake, Brain: 0.00 ± 0.00 % ID/g
  Radioactivity Uptake, Colon: 0.01 ± 0.00 % ID/g
  Radioactivity Uptake, Fat: 0.00 ± 0.00 % ID/g
  Radioactivity Uptake, Heart: 0.01 ± 0.00 % ID/g
  Radioactivity Uptake, Kidneys: 0.75 ± 0.59 % ID/g
  Radioactivity Uptake, Liver: 0.21 ± 0.07 % ID/g
  Radioactivity Uptake, Lung: 0.03 ± 0.01 % ID/g
  Radioactivity Uptake, Muscle: 0.01 ± 0.00 % ID/g
  Radioactivity Uptake, Pancreas: 0.02 ± 0.01 % ID/g
  Radioactivity Uptake, Skin: 0.02 ± 0.01 % ID/g
  Radioactivity Uptake, Small Intestine: 0.36 ± 0.41 % ID/g
  Radioactivity Uptake, Spleen: 0.02 ± 0.01 % ID/g
  Radioactivity Uptake, Stomach: 0.04 ± 0.05 % ID/g
  Radioactivity Uptake, Thymus: 0.01 ± 0.00 % ID/g
  Radioactivity Uptake, Thyroid: 0.01 ± 0.00 % ID/g
  Radioactivity Uptake, Urine: 10.85 ± 12.48 % ID/g
[2]; liver, after injection
  time for hepatic signal to decline to sufficiently low level: ≤ 30 min
[2]; rats, intravenous injection, estimated
  blood half-life: less than 2 min
